According to ChEMBL document CHEMBL1156394, “Low-density lipoprotein-antioxidant constituents of Saururus chinensis” (J Nat Prod, 2001):

Tested on: Plasma
Assay: Antioxidant activity assessed as inhibition of LDL oxidation in human plasma
Format: functional, cell-free

Row | IC50 [nM] | SMILES
1 | 4300 | C/C=C/c1ccc(O[C@@H](C)[C@@H](O)c2ccc(OC)c(OC)c2)c(OC)c1 [VIROLIN]
2 | 2900 | C/C=C/c1ccc(O[C@@H](C)[C@@H](O)c2ccc(O)c(OC)c2)c(OC)c1 [MACHILIN D]
3 | 1300 | CC(C)(Sc1cc(C(C)(C)C)c(O)c(C(C)(C)C)c1)Sc1cc(C(C)(C)C)c(O)c(C(C)(C)C)c1 [PROBUCOL]
